Assay results as given in patent US9702824B2, “pH sensors” (PROMEGA CORPORATION, priority 2012, dated 2017).

Columns and labels:
[1] = Fluorescence excitation and emission spectra of pH sensor agents; assay type: physicochemical
Experimental: Experiments were conducted during development of embodiments of the present invention to determine the fluorescence characteristics of exemplary pH sensor agents PBI-4453 and PBI-4479 (SEE FIG. 1). Fluorescence excitation and emission intensities were measured at a range of wavelengths (SEE FIG. 2). […] Fluorescence detection was performed at a range of pH values (SEE FIG. 3).

U2OS cells = assay: Toxicity, CELLTITER-GLO Luminescent Cell Viability Assay (Example 3); assay type: cell-based; conditions: 0 nM to 20 uM, 24 hour
Experimental: The toxicity of dyes PBI-4479 and PBI-4453 was tested in U2OS cells. The cells were plated at 20,000 cells/well in McCoy's 5A media+10% FBS into wells of a 96-well plate. The compounds were then serially diluted 2-fold in McCoy's 5A+10% FBS to a 10× working solution. 10 ul of the working solution was added to the cells to a final concentration of 0 nM to 20 uM. The treated cells were then incubated overnight at 37° C., 5% CO2. Toxicity was tested using Promega's CELLTITER-GLO Luminescent Cell Viability Assay according to the manufacturer's protocol. No toxicity was seen across varying concentrations of the compounds over the 24 hour period (SEE FIG. 9).

[2] = target: T1, IL6-HT7-DOR1 (δ-opioid receptor) in U2-OS cells (Homo sapiens, UniProt P41143); assay: Receptor internalization detection by imaging; assay type: cell-based; conditions: 1 uM sensor, stimulated with 1 uM SNC80, imaged for 1 hour
T1 construct: expressed in transfected cells; host or cells: U2-OS
Experimental: (§1) Experiments were conducted during development of embodiments of the present invention to detect and monitor internalization/endocytosis. U2-OS cells expressing (either transiently or stably) a HaloTag (HT7)-Receptor fusion protein containing an IL6 signal sequence were used. The following HT7-receptor fusion proteins were expressed in the U2-OS cells: IL6-HT7-β2AR (β2 adrenergic receptor; NM_000024.3), IL6-HT7-EDG1 ([…]; NM_001400), IL6-HT7-DOR1 (δ-opioid receptor; NM 000911) and IL6-HT7-EGFR (epidermal growth factor receptor; AB528482). The cells were plated at 2×10^5 cells/mL in complete media into wells. The cells were then incubated overnight at 37° C., 5% CO2. The media was then replaced with 200 ul McCoy's 5A media with 0.5% charcoal-stripped FBS (Hyclone) and incubated for about 1 hour at 37° C., 5% CO2. The cells were then labeled with 1 uM pH sensor PBI-4479 and incubated for 10 minutes at 37° C., 5% CO2. The cells were then washed 3 times with 200 ul complete media to remove any unbound sensor. The cells were then stimulated with the respective agonist (1 uM Isoproterenol for IL6-HT7-β2AR, 1 uM S1P for IL6-HT7-EDG1, 1 uM SNC80 for IL6-HT7-DOR1, and 1 ng/mL rhEGF for IL6-HT7-EGFR) and imaged every 5 minutes for 1 hour on an Olympus FV500.

[3] = target: T2, IL6-HT7-EDG1 (endothelial differential growth gene 1) in U2-OS cells (UniProt P0A3G2+P21453, A155T/A167V/A172T/A224E/C128F/C176G/D78G/E160K/E257K/H272N/K175M/K195N/L47V/L88M/N227D/S2A/S58T/T264A/Y273L/Y87F); assay: Receptor internalization detection by imaging; assay type: cell-based; conditions: 1 uM sensor, stimulated with 1 uM S1P, imaged for 1 hour
T2 construct: expressed in transfected cells; host or cells: U2-OS
Experimental: as §1

[4] = tested on: IL6-HT7-EGFR (epidermal growth factor receptor) in U2-OS cells; assay: Receptor internalization detection by imaging; assay type: cell-based; conditions: 1 uM sensor, stimulated with 1 ng/mL rhEGF, imaged for 1 hour
Experimental: as §1

[5] = target: T3, IL6-HT7-β2AR (β2 adrenergic receptor) in U2-OS cells (Homo sapiens, UniProt P07550); assay: Receptor internalization detection by imaging; assay type: cell-based; conditions: 1 uM sensor, stimulated with 1 uM Isoproterenol, imaged for 1 hour
T3 construct: expressed in transfected cells; host or cells: U2-OS
Experimental: as §1

U2-OS HaloTag-EDG1 cells = target: T4, U2-OS HaloTag-EDG1 cells (Homo sapiens, UniProt P21453); assay: Detection of internalization using an impermeable pH sensor (Example 13); assay type: cell-based; conditions: 500 nM sensor, with 1 uM S1P
T4 construct: host or cells: U2-OS HaloTag-EDG1 cells
Experimental: The next day, the media was replaced with McCoy's 5A+0.5% cFBS and incubated overnight at 37° C./5% CO2. […] 1 uM S1P (Sphingosine-1-Phosphate) or carrier (DMSO) was then added to the cells, and images were acquired sequentially on Olympus FV500 at 37° C./5% CO2.

[6] = Fluorescence intensity loss and recovery when titrated with base and acid; assay type: physicochemical; conditions: titrated from pH 4 to approximately 8 with NaOH and back to approximately 4 with HCl
Experimental: This example was performed to determine if fluorescence intensity of a pH sensor of the present invention, PBI-4479, which is mostly fluorescent at pH 4, could be recovered when titrated to basic pH, then back to acidic pH. In order to limit disruption of the concentration of the sensor, the experiment was run in a large volume, and the pH was adjusted dropwise with a concentrated base, then with an acid. The product was first dissolved in DMSO to create a concentrated stock, and then a small amount was diluted into 100 mL 10 mM sodium phosphate buffer pH 4.0. Fluorescence was recorded on a HoribaJobinYvon Fluorolog throughout the experiment using an excitation of 528 nm, and emission at 557 nm maintaining a slit width of 2 nm. Excitation and emission maxima were also determined for each aliquot in the event the fluorescence properties of the molecule changed. pH was monitored using a calibrated pH probe (Denver Instruments Model 215 pH meter). 1 mL aliquots were removed when the solution increased to approximately one pH unit, and fluorescence was measured using the parameters stated above. The solution was first titrated dropwise with 2N sodium hydroxide while stirring, until a pH of approximately 8 was attained. The solution was then titrated down with 4N hydrochloric acid until a pH of approximately 4 was attained.

T1 sequence (P41143 with tags, fused parts or gaps): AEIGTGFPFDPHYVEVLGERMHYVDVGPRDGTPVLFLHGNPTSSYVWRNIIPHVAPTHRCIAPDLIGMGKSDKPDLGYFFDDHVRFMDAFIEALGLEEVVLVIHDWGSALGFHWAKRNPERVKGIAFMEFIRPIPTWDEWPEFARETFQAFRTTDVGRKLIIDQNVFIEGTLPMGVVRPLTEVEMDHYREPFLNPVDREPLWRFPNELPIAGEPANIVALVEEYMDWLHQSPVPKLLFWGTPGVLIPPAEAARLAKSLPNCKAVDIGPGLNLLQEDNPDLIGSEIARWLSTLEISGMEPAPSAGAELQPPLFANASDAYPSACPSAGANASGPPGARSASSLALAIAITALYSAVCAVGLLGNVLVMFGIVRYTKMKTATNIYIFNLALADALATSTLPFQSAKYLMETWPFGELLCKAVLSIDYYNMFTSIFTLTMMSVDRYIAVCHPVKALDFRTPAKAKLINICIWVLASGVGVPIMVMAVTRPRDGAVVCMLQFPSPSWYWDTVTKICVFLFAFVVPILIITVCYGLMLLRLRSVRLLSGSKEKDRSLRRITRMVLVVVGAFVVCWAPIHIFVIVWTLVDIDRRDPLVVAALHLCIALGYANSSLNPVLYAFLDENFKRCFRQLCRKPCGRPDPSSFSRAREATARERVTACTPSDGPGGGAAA
T4 sequence (P21453 with tags, fused parts or gaps): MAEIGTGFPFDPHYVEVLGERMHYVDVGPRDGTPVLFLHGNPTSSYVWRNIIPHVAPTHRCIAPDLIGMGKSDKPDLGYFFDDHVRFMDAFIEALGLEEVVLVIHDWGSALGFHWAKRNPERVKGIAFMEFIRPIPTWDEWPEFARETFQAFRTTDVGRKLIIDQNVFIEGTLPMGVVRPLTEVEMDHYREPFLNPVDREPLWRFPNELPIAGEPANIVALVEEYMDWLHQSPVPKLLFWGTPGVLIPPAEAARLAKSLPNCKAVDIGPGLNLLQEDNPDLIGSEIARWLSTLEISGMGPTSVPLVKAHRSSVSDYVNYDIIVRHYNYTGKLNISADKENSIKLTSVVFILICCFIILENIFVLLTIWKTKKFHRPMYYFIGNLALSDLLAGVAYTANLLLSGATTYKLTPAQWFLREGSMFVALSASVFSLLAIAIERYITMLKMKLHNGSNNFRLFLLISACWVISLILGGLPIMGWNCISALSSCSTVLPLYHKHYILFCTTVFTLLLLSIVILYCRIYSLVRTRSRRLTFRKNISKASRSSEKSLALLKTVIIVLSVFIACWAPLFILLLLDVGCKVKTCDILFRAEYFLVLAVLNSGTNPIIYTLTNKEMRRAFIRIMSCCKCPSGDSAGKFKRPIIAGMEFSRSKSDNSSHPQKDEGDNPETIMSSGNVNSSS
T2 sequence (P0A3G2+P21453 fused with the stated changes): as the sequence (P21453 with tags, fused parts or gaps) above

O=C(NCCOCCOCCOCCOCCOCCOCCCCCCCl)c1ccc(C(=O)[O-])c(-c2c3ccc(=[N+]4CCN(CCCCS(=O)(=O)O)CC4)cc-3oc3cc(N4CCN(CCCCS(=O)(=O)O)CC4)ccc23)c1 [PBI-4479]
emission maximum [1]: 562 nm | excitation maximum [1]: 534 nm | toxicity (cell viability) (U2OS cells): No toxicity | detection of receptor internalization [2]: detection of HaloTag-DOR1 internalization | detection of receptor internalization [3]: detection of HaloTag-EDG1 internalization | detection of receptor internalization [4]: detection of HaloTag-EGFR internalization | detection of receptor internalization [5]: detection of HaloTag-B2AR internalization | detection of HaloTag-EDG1 internalization (U2-OS HaloTag-EDG1 cells): ability to detect internalization of HaloTag-EDG1 | reversibility of fluorescence intensity [6]: fluorescent intensity loss and recovery
